{"source": "patent US4454158A", "about": "“Allyl amine MAO inhibitors” (Merrell Toraude et Compagnie, priority 1981, dated 1984)", "key": {"MAO [1]": {"test_system": "MAO", "test": "Inhibition of MAO - In vitro (14C p-tyramine substrate, partially purified rat brain mitochondria)", "format": "biochemical", "details": "tested as hydrochloride salt, read-out: IC50 (MAO inhibitory activity - In vitro)", "source_text": "(A) The ability of a compound of Formula I or II to inhibit MAO can be determined in vitro by the method of A. Christmas et al, Br. J. Pharmacol. 45, 490 (1972) in partially purified mitochondria from rat brain using ^14 C p-tyramine as the substrate."}, "MAO-B versus MAO-A": {"test_system": "MAO-B versus MAO-A", "test": "Selectivity of MAO inhibitors - In vitro (14C 5-hydroxytryptamine for MAO-A, 14C phenethylamine for MAO-B)", "format": "biochemical, rat", "details": "for Selectivity (ratio of inhibitory activity against MAO-B versus MAO-A): in vitro, rat brain mitochondria", "experimental": "Mitochondria are prepared from rat brain by homogenation in phosphate buffer (0.1 M, pH 7.2) followed by differential centrifugation. The mitochondria are suspended in the same buffer, the test compound is added at the desired concentration, and the system is incubated. […] Christmas, et al, supra).\nSelectivity is expressed as the ratio of the inhibitory activity against MAO-B versus the inhibitory activity against MAO-A."}, "MAO [2]": {"test_system": "MAO", "test": "Inhibition of MAO - Ex vivo, rat (14C p-tyramine substrate)", "format": "in vivo", "details": "for % Inhibition of MAO - Duodenum / % Inhibition of MAO - Heart / % Inhibition of MAO - Liver: 2 hr; for % Inhibition of MAO - Brain: 18 hr", "experimental": "The ability of a compound of Formula I or II to inhibit MAO can be determined ex vivo by the following procedure:\nThe test compound is administered intraperitoneally (ip), intravenously (iv), or orally (po) to rats or mice and the animals are killed at various times after treatment. […] MAO activity is determined in the homogenates using ^14 C p-tyramine, as the substrate. […] Selectivity can be determined by repeating the above-described test using either ^14 C 5-hydroxytryptamine (for MAO-A) or ^14 C phenethylamine (for MAO-B) as the substrate for determining the % inhibition"}, "MAO [3]": {"test_system": "MAO", "test": "Inhibition of MAO - In vivo: change in levels of endogenous MAO substrates and metabolites in mouse brain", "parameters": "species or system mice", "experimental": "The ability of a compound of Formula I or II to inhibit MAO can be determined in vivo in mice according to the following procedure, wherein changes in concentration of the endogenous MAO substrates and the metabolites thereof are assayed.\nMice are given an intraperitoneal injection of the test compound and 2 hours or 16 hours later the animals are killed. The levels of dopamine, dihydroxyphenylacetic acid (DOPAC), 5-hydroxytryptamine (5-HT), and 5-hydroxyindole-3-acetic acid (5-HIAA) in brain homogenates are determined by the method of J. Wagner et al, J. Chromatog. 164, 41 (1979) and P. Bey et al, Br. J. Pharmac., 70, 571 (1980)."}, "depression": {"test_system": "depression", "details": "literature; cited from earlier work"}, "cheese effect": {"test_system": "cheese effect", "details": "low dosages; literature; cited from earlier work"}, "Parkinson's disease": {"test_system": "Parkinson's disease", "details": "literature; cited from earlier work"}, "[4]": {"test_system": "heart rate response to p-tyramine", "test": "Cheese effect: potentiation of heart-rate response to p-tyramine in rats", "details": "rat", "method": "The following test procedure can be employed to assess the potential of a compound of Formula I or II for producing the \"cheese effect\":\nRats are administered an intravenous injection of the test compound at various dosage levels, and 30 minutes later the rats are challenged with several intravenous or intraduodenal dodes of p-tyramine. The heart rate response is measured."}}, "note": "Where two headings read alike, the source gives them in different places."}
{"compound": "COc1cccc(/C(=C\\F)CN)c1", "note": "[(E)-2-(3'-Methoxy)phenyl-3-fluoroallylamine]", "values": [{"measurement": "IC50", "setting": "MAO [1]", "value": 5, "unit": "nM"}, {"measurement": "Selectivity (ratio of inhibitory activity against MAO-B versus MAO-A)", "setting": "MAO-B versus MAO-A", "value": 4}, {"measurement": "% Inhibition of MAO - Duodenum", "setting": "MAO [2]; 0.1 mg/kg iv", "value": 90, "unit": "%"}, {"measurement": "% Inhibition of MAO - Heart", "setting": "MAO [2]; 0.1 mg/kg iv", "value": 98, "unit": "%"}, {"measurement": "% Inhibition of MAO - Liver", "setting": "MAO [2]; 0.1 mg/kg iv", "value": 70, "unit": "%"}]}
{"compound": "NC/C(=C/F)c1cccc(O)c1", "note": "[(E)-2-(3'-hydroxy)phenyl-3-fluoroallylamine]", "values": [{"measurement": "IC50", "setting": "MAO [1]", "value": 50, "unit": "nM"}]}
{"compound": "NC/C(=C/F)c1cccc(C(F)(F)F)c1", "note": "[(E)-2-(3'-trifluoromethyl)phenyl-3-fluoroallylamine]", "values": [{"measurement": "IC50", "setting": "MAO [1]", "value": 7, "unit": "nM"}]}
{"compound": "C#CCN(C)[C@H](C)Cc1ccccc1", "note": "[L-deprenyl, reference compound]", "values": [{"measurement": "% Inhibition of MAO - Duodenum", "setting": "MAO [2]; 1.0 mg/kg po", "value": 62, "unit": "%"}, {"measurement": "% Inhibition of MAO - Heart", "setting": "MAO [2]; 1.0 mg/kg po", "value": 48, "unit": "%"}, {"measurement": "% Change (compared to control) - 5-HIAA", "setting": "MAO [3]; 10 mg/kg ip, 2 hr", "value": "+9%"}, {"measurement": "% Change (compared to control) - 5-HT", "setting": "MAO [3]; 10 mg/kg ip, 2 hr", "value": "+18%"}, {"measurement": "% Change (compared to control) - DOPAC", "setting": "MAO [3]; 10 mg/kg ip, 2 hr", "value": -21, "unit": "%"}, {"measurement": "% Change (compared to control) - Dopamine", "setting": "MAO [3]; 10 mg/kg ip, 2 hr", "value": "+10%"}, {"measurement": "clinical effectiveness as antidepressant (in words)", "setting": "depression", "value": "clinically effective antidepressant agents"}, {"measurement": "cheese effect (in words)", "setting": "cheese effect", "value": "is not observed at the low dosages where preferential inhibition of MAO-B occurs"}, {"measurement": "potentiation of L-DOPA in Parkinson's disease (in words)", "setting": "Parkinson's disease", "value": "potentiate L-DOPA for the treatment of Parkinson's disease without producing peripheral side effects"}, {"measurement": "Potentiation of heart-rate response to p-tyramine", "setting": "[4]; dose 0.1 (iv), p-tyramine i.d.", "value": "no effect"}, {"measurement": "Potentiation of heart-rate response to p-tyramine", "setting": "[4]; dose 0.1 (iv), p-tyramine i.v.", "value": 1.3, "unit": "fold"}, {"measurement": "Potentiation of heart-rate response to p-tyramine", "setting": "[4]; dose 1.0 (iv), p-tyramine i.d.", "value": 2.1, "unit": "fold"}, {"measurement": "Potentiation of heart-rate response to p-tyramine", "setting": "[4]; dose 1.0 (iv), p-tyramine i.v.", "value": 2.2, "unit": "fold"}]}
{"compound": "NC/C(=C/F)c1ccc(Cl)cc1", "note": "[(E)-2-(4'-Chloro)phenyl-3-fluoroallylamine]", "values": [{"measurement": "IC50", "setting": "MAO [1]", "value": 20, "unit": "nM"}, {"measurement": "Selectivity (ratio of inhibitory activity against MAO-B versus MAO-A)", "setting": "MAO-B versus MAO-A", "value": 10}]}
{"compound": "NC/C(=C/F)Cc1ccccc1", "note": "[(E)-2-benzyl-3-fluoroallylamine, (E)-2-2-Benzyl-3-fluoroallylamine]", "values": [{"measurement": "IC50", "setting": "MAO [1]", "value": 7500, "unit": "nM"}, {"measurement": "selectivity for MAO-B as compared to MAO-A (in words)", "setting": "MAO-B versus MAO-A", "value": "marked selectivity for MAO-B as compared to MAO-A"}, {"measurement": "Selectivity (ratio of inhibitory activity against MAO-B versus MAO-A)", "setting": "MAO-B versus MAO-A", "value": 200}]}
{"compound": "C=C(CN)c1ccccc1", "note": "[2-phenylallylamine, 2-Phenylallylamine]", "values": [{"measurement": "IC50", "setting": "MAO [1]", "value": 400000, "unit": "nM"}]}
{"compound": "COc1ccc(/C(=C\\F)CN)cc1OC", "note": "[(E)-2-(3',4'-Dimethoxy)phenyl-3-fluoroallylamine]", "values": [{"measurement": "IC50", "setting": "MAO [1]", "value": 2500, "unit": "nM"}, {"measurement": "selectivity for MAO-B as compared to MAO-A (in words)", "setting": "MAO-B versus MAO-A", "value": "marked selectivity for MAO-B as compared to MAO-A"}, {"measurement": "Selectivity (ratio of inhibitory activity against MAO-B versus MAO-A)", "setting": "MAO-B versus MAO-A", "value": 1000}, {"measurement": "selectivity for MAO-B as compared to MAO-A (in words)", "setting": "MAO-B versus MAO-A; listed as (E)-2-(3',4'-dimethoxyphenyl)-3-fluoroallylamine", "value": "selective inhibitors of MAO-B"}, {"measurement": "% Inhibition of MAO - Brain", "setting": "MAO [2]; 0.5 mg/kg po", "value": 79, "unit": "%"}, {"measurement": "% Inhibition of MAO - Duodenum", "setting": "MAO [2]; 1.0 mg/kg iv", "value": 40, "unit": "%"}, {"measurement": "% Inhibition of MAO - Heart", "setting": "MAO [2]; 1.0 mg/kg iv", "value": 17, "unit": "%"}, {"measurement": "% Inhibition of MAO - Liver", "setting": "MAO [2]; 1.0 mg/kg iv", "value": 58, "unit": "%"}, {"measurement": "% Inhibition of MAO - Brain", "setting": "MAO [2]; 10.0 mg/kg po", "value": 93, "unit": "%"}, {"measurement": "% Change (compared to control) - 5-HIAA", "setting": "MAO [3]; 10 mg/kg ip, 16 hr", "value": -8, "unit": "%"}, {"measurement": "% Change (compared to control) - 5-HT", "setting": "MAO [3]; 10 mg/kg ip, 16 hr", "value": "+31%"}, {"measurement": "% Change (compared to control) - DOPAC", "setting": "MAO [3]; 10 mg/kg ip, 16 hr", "value": -62, "unit": "%"}, {"measurement": "% Change (compared to control) - Dopamine", "setting": "MAO [3]; 10 mg/kg ip, 16 hr", "value": "+18%"}, {"measurement": "% Change (compared to control) - 5-HIAA", "setting": "MAO [3]; 50 mg/kg ip, 16 hr", "value": -32, "unit": "%"}, {"measurement": "% Change (compared to control) - 5-HT", "setting": "MAO [3]; 50 mg/kg ip, 16 hr", "value": "+122%"}, {"measurement": "% Change (compared to control) - DOPAC", "setting": "MAO [3]; 50 mg/kg ip, 16 hr", "value": -85, "unit": "%"}, {"measurement": "% Change (compared to control) - Dopamine", "setting": "MAO [3]; 50 mg/kg ip, 16 hr", "value": "+22%"}, {"measurement": "Potentiation of heart-rate response to p-tyramine", "setting": "[4]; dose 1.0 (iv), p-tyramine i.d.", "value": 2.5, "unit": "fold"}, {"measurement": "Potentiation of heart-rate response to p-tyramine", "setting": "[4]; dose 1.0 (iv), p-tyramine i.v.", "value": 2.3, "unit": "fold"}, {"measurement": "risk of producing the cheese effect (in words)", "setting": "[4]; in vivo", "value": "significantly decreased risk"}]}
{"compound": "NCC(=CBr)c1ccccc1", "note": "[2-phenyl-3-bromoallylamine, 2-Phenyl-3-bromoallylamine]", "values": [{"measurement": "IC50", "setting": "MAO [1]", "value": 40000, "unit": "nM"}]}
{"compound": "NCC(=C(Br)Br)c1ccccc1", "note": "[2-phenyl-3,3-dibromoallylamine, 2-Phenyl-3,3-dibromoallylamine]", "values": [{"measurement": "IC50", "setting": "MAO [1]", "value": 500000, "unit": "nM"}]}
{"compound": "NCC(=C(F)F)c1ccccc1", "note": "[2-phenyl-3,3-difluoroallylamine, 2-Phenyl-3,3-difluoroallylamine]", "values": [{"measurement": "IC50", "setting": "MAO [1]", "value": 10000, "unit": "nM"}]}
{"compound": "CCNC/C(=C/F)c1cccc(OC)c1", "note": "[(E)-N-Ethyl 2-(3'-methoxy)phenyl-3-fluoroallylamine]", "values": [{"measurement": "IC50", "setting": "MAO [1]", "value": 3000, "unit": "nM"}]}
